Read-outs that look alike come from different tables or passages of the source.
What was measured:
P. aeruginosa PA01 = test: IC50 assay (OD595, 24 h) against PA01; type: cell-based; conditions: Pseudomonas aeruginosa
Procedure: (§1) P. aeruginosa PA01, and PA14 were gifts from Prof. George O'Toole (Dartmouth Medical School). Bacterial cultures were grown from freezer stocks overnight (16-24 hr) with shaking at 37° C. in Tryptic Soy Broth (TSB) media (10 mL). Growth curves were obtained for PA01 and PA14 to determine the OD of each strain in exponential growth; OD readings at 595 nm were taken every 10 minutes for 6 hours in a plate reader at 37° C. with shaking and repeated six times. (see FIGS. 6A and 6B) Compounds were serially diluted in sterile DI water from a stock solution (1 mM in 10% DMSO/90% H2O) to yield twenty-four test concentrations. Overnight cultures were diluted 1:100 in 5 mL fresh media and grown with shaking at 37° C. to an OD of 0.32 (see growth curves). Bacteria were diluted to a concentration of 0.004 using the following equation: (x μL O/N)(OD reading)=(0.004)(volume needed) and 100 μL was inoculated into each well of a flat-bottom 96-well plate (Corning 3370) containing 100 μL of compound solution. Plates were incubated statically at 37° C. for 24 hours, upon which time the OD at 595 nm was measured using a plate reader. IC50 values were calculated by fitting the OD readings vs. concentration with a 4 parameter logistic model. Controls were prepared by serially diluting a 10% DMSO/90% H2O the same as the compound stock solution. Compounds were tested in triplicate from separate O/N cultures and results averaged.

P. aeruginosa PA14 = test: IC50 assay (OD595, 24 h) against PA14; type: cell-based, Pseudomonas aeruginosa; conditions: Pseudomonas aeruginosa
Procedure: (§2) P. aeruginosa PA01, and PA14 were gifts from Prof. George O'Toole (Dartmouth Medical School). Bacterial cultures were grown from freezer stocks overnight (16-24 hr) with shaking at 37° C. in Tryptic Soy Broth (TSB) media (10 mL). Growth curves were obtained for PA01 and PA14 to determine the OD of each strain in exponential growth; OD readings at 595 nm were taken every 10 minutes for 6 hours in a plate reader at 37° C. with shaking and repeated six times. (see FIGS. 6A and 6B)
as §1, with “Compounds” for “P. aeruginosa PA01, and PA14 were gifts from Prof. George O'Toole (Dartmouth Medical School). Bacterial cultures were grown from freezer stocks overnight (16-24 hr) with shaking at 37° C. in Tryptic Soy Broth (TSB) media (10 mL). Growth curves were obtained for PA01 and PA14 to determine the OD of each strain in exponential growth; OD readings at 595 nm were taken every 10 minutes for 6 hours in a plate reader at 37° C. with shaking and repeated six times. (see FIGS. 6A and 6B) Compounds”
Compounds were serially diluted in sterile DI water from a stock solution (10% DMSO/H2O) yielding 24 test concentrations. Bacteria were diluted to a final concentration of 0.004 from regrown overnight culture according to the following equation: (xμL bacterial culture)(OD reading)=(0.004)(total volume needed) and 100 μL was inoculated into each well of a flat-bottom 96-well plate (Corning 3370) containing 100 μL of compound solution. Plates were incubated statically at 37° C. for 24 hours upon which time OD at 595 nm was measured using a plate reader (Spectra Max 190). IC50 values were calculated using OD values and concentrations with a 4-parameter logistic model. Control experiments used a 10% DMSO/H2O stock serially diluted to the same 24 concentrations. Compounds were tested in triplicate from three independent overnight cultures.

[1] = system: P. aeruginosa strains PAO1 and PA14; test: Inhibitory activity against P. aeruginosa, strain not separated in text; type: cell-based, Pseudomonas aeruginosa; conditions: compared with promysalin
Procedure: as §2
as §1, with “Compounds” for “P. aeruginosa PA01, and PA14 were gifts from Prof. George O'Toole (Dartmouth Medical School). Bacterial cultures were grown from freezer stocks overnight (16-24 hr) with shaking at 37° C. in Tryptic Soy Broth (TSB) media (10 mL). Growth curves were obtained for PA01 and PA14 to determine the OD of each strain in exponential growth; OD readings at 595 nm were taken every 10 minutes for 6 hours in a plate reader at 37° C. with shaking and repeated six times. (see FIGS. 6A and 6B) Compounds”
With a library of sixteen analogs in hand, all of the compounds were evaluated for inhibitory activity against P. aeruginosa strains PAO1 and PA14. […] The inhibition data supported our initial hypothesis that the conformation of promysalin is exquisitely linked to its inhibition of PA. Of our modifications to the proline structure, fluorination (9)—being the smallest steric perturbation, was the only compound with equipotency to that of promysalin.

CAS assay (CAS agar) = type: physicochemical; conditions: at concentrations ranging from 6-100 μM; reduced affinity compared to EDTA
Procedure: CAS agar was prepared as described previously (Cordero, et al., PNAS, 2012, 109, 49, 29059). 10 μL of solution at given concentration were dosed onto plates and imaged after 24 hours. Stock solutions were made in 10% DMSO/H2O.

PaPiuA = test: Isothermal microcalorimetry titration; type: binding, Pseudomonas aeruginosa; conditions: 25° C.
Procedure: Titrations were performed using 5 μl injections of 164 μM (using ε280=6 714 1 mol-1 cm-1 Li et al. Chemistry and Biology 2011) of the ligand in 17 μM of purified PaPiuA (Moynie et al. Antimicrobial Agents and Chemotherapy 2017) in the same buffer (50 mM sodium phosphate pH 7.5, 50 mM NaCl, 0.8% OctylPOE). The heats of dilution measured from injection of the ligands into the buffer were subtracted from the experimental data and titration curves were fitted to a single site binding using Origin software.

[2] = system: P. aeruginosa (PA14, PA01); test: Zone of inhibition / growth in defined media; type: cell-based, Pseudomonas aeruginosa
Procedure: (§3) Bacterial strains (PA14, PAO1, KT2440, and RW10S1) were grown at 37° C. in TSB medium or on agar plates.
(§4) 100 μL overnight culture was added to TSB or M9 agar plates and bacterial lawns were ‘created’ using Roll & Grow Plating Beads. Compound stock solution 20 μL of a 250 μM solution, 10 μL of a 10 mg/mL gentamicin solution, and 20 μL of a 250 μM DMSO control (stock=10% DMSO/H2O) was absorbed into discs and allowed to dry. Discs were placed on the plates and incubated at 37° C. for 24 hours. Assay was run in triplicate from separate overnight cultures.

[3] = system: P. putida (PP KT2440, PP RW10S); test: Zone of inhibition / growth in defined media; type: cell-based, Pseudomonas putida
Procedure: as §3, §4

[4] = system: P. aeruginosa strains PAO1 and PA14; conditions: cited from earlier work
[5] = Kaduskar et al., 2016; cited from earlier work
Gram-positive bacteria = conditions: Li et al., 2011; cited from earlier work
[6] = system: pyoverdine production in P. putida KT2440; conditions: cited from earlier work
[7] = average of EXPT 1-3, read-out: IC50 PA01 AVG
[8] = averages of three independent experiments, read-out: IC50 PA01
[9] = single trial 1, read-out: IC50 PA01 EXPT 1
[10] = single trial 2, read-out: IC50 PA01 EXPT 2
[11] = single trial 3, read-out: IC50 PA01 EXPT 3
[12] = average of EXPT 1-3, read-out: IC50 PA14 AVG
[13] = averages of three independent experiments, read-out: IC50 PA14
[14] = single trial 1, read-out: IC50 PA14 EXPT 1
[15] = single trial 2, read-out: IC50 PA14 EXPT 2
[16] = single trial 3, read-out: IC50 PA14 EXPT 3

For `CCCCCC[C@H](CCCCC[C@@H](O)C(N)=O)OC(=O)[C@@H]1CCCN1C(=O)c1ccccc1O` [compound 6, (1R,7R)-1-carbamoyl-1-hydroxytridecan-7-yl (2S)-1-(2-hydroxybenzoyl)pyrrolidine-2-carboxylate], the IC50 (P. aeruginosa PA01; [7]) was 111 µM, the IC50 (P. aeruginosa PA01; [8]) was 111 µM and the IC50 (P. aeruginosa PA01; [9]) was 113 µM. For the same compound, the IC50 (P. aeruginosa PA01; [10]) was 98.9 µM, the IC50 (P. aeruginosa PA01; [11]) was 121 µM and the IC50 (P. aeruginosa PA14; [12]) was 28.3 µM. The IC50 (P. aeruginosa PA14; [13]) was 28 µM, the IC50 (P. aeruginosa PA14; [14]) was 24.3 µM and the IC50 (P. aeruginosa PA14; [15]) was 27.1 µM. The IC50 (P. aeruginosa PA14; [16]) was 33.7 µM and the “inhibitory activity against P. aeruginosa, in words (SAR)” value [1] was “modest activity”.

`CCCCCC[C@H](CCCCC[C@@H](OC)C(N)=O)OC(=O)[C@@H]1CC=CN1C(=O)c1ccccc1O` [compound 19, (7R,13R)-14-amino-13-methoxy-14-oxotetradecan-7-yl (S)-1-(2-hydroxybenzoyl)-2,3-dihydro-1H-pyrrole-2-carboxylate] gave an IC50 (P. aeruginosa PA01; [7]) of 38.3 µM, an IC50 (P. aeruginosa PA01; [8]) of 38 µM and an IC50 (P. aeruginosa PA01; [9]) of 29.2 µM. It also gave an IC50 (P. aeruginosa PA01; [10]) of 49.3 µM, an IC50 (P. aeruginosa PA01; [11]) of 47.6 µM and an IC50 (P. aeruginosa PA14; [12]) of 11.2 µM. For the same compound, the IC50 (P. aeruginosa PA14; [13]) was 11 µM, the IC50 (P. aeruginosa PA14; [14]) was 12.8 µM and the IC50 (P. aeruginosa PA14; [15]) was 5.72 µM. The IC50 (P. aeruginosa PA14; [16]) was 15 µM and the “inhibitory activity against P. aeruginosa, in words (SAR)” value [1] was “decrease in potency”.

`CCCCCC[C@H](CCCCC[C@@H](O)C(N)=O)OC(=O)[C@@H]1CC=CN1C(=O)c1ccccc1OC` [compound 11, (1R,7R)-1-carbamoyl-1-hydroxytridecan-7-yl (2S)-1-(2-methoxybenzoyl)-2,3-dihydro-1H-pyrrole-2-carboxylate] gave an IC50 (P. aeruginosa PA01; [7]) of 56.7 µM, an IC50 (P. aeruginosa PA01; [8]) of 57 µM and an IC50 (P. aeruginosa PA01; [9]) of 59.3 µM. For the same compound, the IC50 (P. aeruginosa PA01; [10]) was 55.4 µM, the IC50 (P. aeruginosa PA01; [11]) was 55.5 µM and the IC50 (P. aeruginosa PA14; [12]) was 6.74 µM. The IC50 (P. aeruginosa PA14; [13]) was 6.7 µM, the IC50 (P. aeruginosa PA14; [14]) was 6.98 µM and the IC50 (P. aeruginosa PA14; [15]) was 5.86 µM. The IC50 (P. aeruginosa PA14; [16]) was 7.39 µM and the “inhibitory activity against P. aeruginosa, in words (SAR)” value [1] was “an order of magnitude less potency”.

For `CCCCCC[C@H](CCCCC[C@@H](O)C(N)=O)OC(=O)[C@@H]1CC=CN1C(=O)c1ccccc1O` [1 (2R,8R), promysalin], the IC50 (P. aeruginosa PA01; [7]) was 4.12 µM, the IC50 (P. aeruginosa PA01; [8]) was 4.1 µM and the IC50 (P. aeruginosa PA01; [9]) was 4.44 µM. For the same compound, the IC50 (P. aeruginosa PA01; [10]) was 4.37 µM, the IC50 (P. aeruginosa PA01; [11]) was 3.54 µM and the IC50 (P. aeruginosa PA14; [12]) was 0.067 µM. It also gave an IC50 (P. aeruginosa PA14; [13]) of 0.067 µM, an IC50 (P. aeruginosa PA14; preliminary screening for probe design, read-out: IC50 in PA14) of 0.063 µM and an IC50 (P. aeruginosa PA14; [14]) of 0.1 µM. For the same compound, the IC50 (P. aeruginosa PA14; [15]) was 0.02 µM, the IC50 (P. aeruginosa PA14; [16]) was 0.08 µM and the “Fe^3+ chelation on CAS agar” value (CAS assay (CAS agar)) was “positive”. The “binding to PiuA (isothermal microcalorimetry)” value (PaPiuA) was “no appreciable interaction”, the “activity in TSB and glucose+Fe media” value [2] was “active” and the zone of inhibition ([3]; M9, succinate as sole carbon source, iron-limiting, both PP strains including producing organism) was “clear zone of inhibition”. The “activity in TSB and glucose+Fe media” value ([3]; P. putida) was “not P. putida”, the “activity against PA (literature)” value [4] was “nM concentrations” and the “stability under mildly acidic conditions” value [5] was “instability”. For the same compound, the “susceptibility of Gram-positive bacteria” value (Gram-positive bacteria) was “no susceptibility” and the “production of pyoverdine in P. putida KT2440” value [6] was “inhibits”.

`CCCCCC[C@H](CCCCC[C@@H](O)C(N)=O)OC(=O)[C@@H]1CC(C)=CN1C(=O)c1ccccc1O` [compound 10, (7R,13R)-14-amino-13-hydroxy-14-oxotetradecan-7-yl (S)-1-(2-hydroxybenzoyl)-4-methyl-2,3-dihydro-1H-pyrrole-2-carboxylate] gave an IC50 (P. aeruginosa PA01; [7]) of 31.9 µM, an IC50 (P. aeruginosa PA01; [8]) of 32 µM and an IC50 (P. aeruginosa PA01; [9]) of 32.3 µM. It also gave an IC50 (P. aeruginosa PA01; [10]) of 32.5 µM, an IC50 (P. aeruginosa PA01; [11]) of 31.1 µM and an IC50 (P. aeruginosa PA14; [12]) of 11.4 µM. For the same compound, the IC50 (P. aeruginosa PA14; [13]) was 12 µM, the IC50 (P. aeruginosa PA14; [14]) was 10.8 µM and the IC50 (P. aeruginosa PA14; [15]) was 11.2 µM. The IC50 (P. aeruginosa PA14; [16]) was 12.2 µM and the “inhibitory activity against P. aeruginosa, in words (SAR)” value [1] was “slightly tolerated”.

— patent US10647671B2, “Promysalin analogues and methods of use thereof” (Temple University—Of The Commonwealth System of Higher …, priority 2016, dated 2020)
